Experiments:
[1] = system: SM1 melanoma cells; assay: Cd47 mRNA upon IFNγ stimulation in SM1 cells; assay type: cell-based, mouse; settings: IFNγ for 12 hours
Description: (§1) qRT-PCR: Total RNA was extracted from cells using the Trizol reagent according to manufacturer's instructions (ThermoFisher Scientific, 15596018). Samples were then processed immediately or stored at −80° C. RNA was quantified using a NanoDrop One Spectrophotometer (ThermoFisher Scientific). The 260/280 ratios were routinely over 1.8. Sample cDNA was produced using the iScript cDNA synthesis kit (Bio-Rad, 1708891). Target mRNA was quantified using MyIQ single-color real-time PCR detection system from Bio-Rad (Bio-Rad, Hercules, CA) and iQ SYBR green Supermix (Bio-Rad, 1708882). The following primers were synthesized by Invitrogen (Waltham, MA) with sequences designed by Origene (Rockville, MD): mouse R-actin (MP200232), mouse Nos2 (MP208933), mouse MRC1 (MP207800), human R-actin (HP204660), human IL-1β (HP200544), human MRC1 (HP206121), human NOS2 (HP200591), human CD209 (HP214086), mouse SIRPα (MP215450), mouse LRP1 (MP207604), human LRP1 (HP206040), mouse MFGE8 (MP208190), human MFGE8 (HP225757), mouse CD36 (MP201923), human CD36 (HP200058), and mouse CD47 (MP201932). Primers for mouse ARG-1 (PPM31770C) and human SIRPα (QT01031051) were purchased from Qiagen (Hilden, Germany). […] Quantification is expressed in arbitrary units and target mRNA levels were normalized to R-actin expression.
(§2) Although the mechanism by which IFNγ drives CD47 upregulation is unclear, IFNγ expression correlates to CD47 expression in skin cutaneous melanoma (Ye Z H, et al. (2021) Transl. Oncol. 14:101162). The kinetics of Cd47 mRNA in SM1 and B16 cells upon IFNγ stimulation (100 ng/mL) were evaluated and these mouse melanoma models were determined to have different kinetics (FIG. 9A-FIG. 9B). It was determined that 12 hours was a time point for both models to sustain the IFNγ-mediated upregulation. In FIG. 9B, the role of HDAC6 inhibitors NextA and Tubastatin A in abrogating Cd47 upregulation upon stimulation with IFNγ for 12 hours was evaluated.

[2] = system: B16 melanoma cells; assay: Cd47 mRNA upon IFNγ stimulation in B16 cells; assay type: cell-based, mouse; settings: IFNγ for 12 hours
Description: as §1, §2

[3] = system: SM1 melanoma tumors; assay: Immunophenotyping of SM1 tumors by flow cytometry; assay type: in vivo, mouse
Description: Flow Cytometry: Immunophenotyping of tumors by flow cytometry was performed following the protocol previously described (Knox T, et al. (2019) Sci. Rep. 9:6136; Banik D, et al. (2020) Cancer Res. 80:3649-3662). When control tumors reached the endpoint (2000 mm^3), mice were euthanized following the IACUC protocol at The George Washington University, and tumors were processed into a single-cell suspension for analysis by flow cytometry with tumor digestion buffer containing collagenases I and IV, hyaluronidase V, and DNAse I. Dead cells were discriminated using LIVE/DEAD™ Fixable Aqua Dead Cell Stain Kit (ThermoFisher Scientific, L34965). The antibodies used to stain cell surface markers were all purchased from BioLegend (San Diego, CA) unless otherwise mentioned. Myeloid cell surface markers include: APC/Fire 750 anti-mouse CD45.2 (clone 104), Brilliant Violet 421 anti-mouse/human CD11b (clone M1/70), Brilliant Violet 605 anti-mouse Ly-6G/Ly-6C (Gr-1) (clone RB6-8C5), Brilliant Violet 785 anti-mouse F4/80 (clone BM8), APC anti-mouse CD80 (clone 16-10A1), PerCP/Cyanine5.5 anti-mouse H-2Kd (clone SF1-1.1), PE/Cy7 anti-mouse CD206 (MMR) (clone C068C2), PE anti-mouse CD163 (clone 5B11), and Alexa Fluor 700 anti-mouse CD3 (clone 17A2). T cell surface markers are as follows: Brilliant Violet 785 anti-mouse CD45.2 (clone 104), PerCP/Cy5.5 anti-mouse CD3 (clone 17A2), APC/Fire 750 anti-mouse CD8a (clone 53-6.7), Brilliant Violet 650 anti-mouse CD4 (clone GK1.5), Brilliant Violet 605 anti-mouse CD44 (clone IM7), PE anti-mouse CD62L (clone MEL-14), and Pacific Blue anti-mouse CD25 (clone PC61). NK cell surface markers are as follows: Brilliant Violet 785 anti-mouse CD45.2 (clone 104), PerCP/Cy5.5 anti-mouse CD3 (clone 17A2), PE/Cy7 anti-mouse CD49b (pan-NK cells) (clone DX5), Brilliant Violet 421 anti-mouse CD16/32 (clone 93), Alexa Fluor 700 anti-mouse CD8a (clone 53-6.7), and PE anti-mouse 4-1BB (clone 17B5). Multicolor flow data was acquired using a BD FACS Celesta Cell Analyzer, and data analysis was performed with FlowJo software version 10.3. The gating strategies for each immune cell panel can be found in FIG. 11A-FIG. 11C.
To evaluate the effects of the single arms and combination therapy, the tumors were harvested at the experimental endpoint and immunophenotyping was performed by flow cytometry. Overall, the combination of NextA and anti-CD47 had immunomodulatory effects and enhanced immune cell infiltration in the TME. […] The different macrophage populations in the tumors were evaluated (FIG. 6B).

[4] = system: SIRPα; assay: SIRPα expression on NK cells; assay type: cell-based

## CCCCN(Cc1ccc(C(=O)NO)cc1)C(=O)Nc1ccccc1 [NextA, Nexturastat A]
[1]
  IFNγ-driven Cd47 upregulation at the transcriptional level: repressed these effects
[2]
  IFNγ-driven Cd47 upregulation at the transcriptional level: repressed these effects
[3]; SM1 tumors
  M1/M2 ratio: increased
[3]; SM1 tumors (FIG. 6B)
  M1-like macrophages (CD80+, H2Kd+, F4/80+): significantly increased
  M2-like macrophages (CD206+, CD163+, F4/80+): significantly decreased
[3]; SM1 tumors (FIG. 6C)
  CD3 T cell infiltration: increased
[3]; SM1 tumors (FIG. 6J)
  total NKT, CD8+ NKT, and CD137+ CD8+ NKT cells in the TME: significantly increased
[4]
  SIRPα expression on NK cells: downregulated

Source: patent US20230391868A1, “COMPOSITIONS FOR AND METHODS OF TREATING CANCER” (The George Washington University, priority 2022, published 2023)
